Data taken from patent EP1944296A1, “Amorphous phase of a substituted pyrazoline, its preparation and use as medicaments” (Laboratorios del Dr. Esteve S.A., priority 2007, dated 2008).

Biological target: T1, recombinant human cannabinoid 1 receptor (CB1) (Homo sapiens, UniProt P21554)
T1 construct: expressed in transfected cells; membrane preparation
Experiment: In vitro determination of antagonism to CB1-receptor, [35S]GTPγS binding assay
Type: biochemical
Conditions: compound 1 µM vs agonist WIN 55,212-2; 100 % = effect of Rimonabant (1 µM)
Method: The reaction is performed in 96-well plates. […] Radioactivity is determined using a Wallac Microbeta Trilux. Each experiment is performed at least in duplicate.
The average of basal [^35S]GTPγS binding is subtracted from all binding data.

T1 sequence (P21554 whole entry): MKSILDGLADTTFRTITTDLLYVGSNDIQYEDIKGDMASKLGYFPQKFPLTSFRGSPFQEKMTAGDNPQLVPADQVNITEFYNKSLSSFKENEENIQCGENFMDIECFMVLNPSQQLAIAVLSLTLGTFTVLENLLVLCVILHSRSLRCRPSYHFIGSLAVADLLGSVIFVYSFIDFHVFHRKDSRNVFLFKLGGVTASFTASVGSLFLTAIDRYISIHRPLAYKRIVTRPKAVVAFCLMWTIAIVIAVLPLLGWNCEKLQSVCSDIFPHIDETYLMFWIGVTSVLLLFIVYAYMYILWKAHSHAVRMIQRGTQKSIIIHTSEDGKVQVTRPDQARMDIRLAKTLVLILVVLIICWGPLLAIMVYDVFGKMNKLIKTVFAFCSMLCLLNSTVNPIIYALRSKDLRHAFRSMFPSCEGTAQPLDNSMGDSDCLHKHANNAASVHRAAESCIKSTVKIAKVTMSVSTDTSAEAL

- Antagonism: 106%
SMILES: O=C(NN1CCCCC1)C1=NN(c2ccc(Cl)cc2Cl)[C@@H](c2ccc(Cl)cc2)C1 [Example 1, (R)-N-piperidinyl-5-(4-chlorophenyl)-1-(2,4-dichlorophenyl)-4,5-dihydro-1H-pyrazole-3-carboxamide]
